The results in this text go back to US20080194590A1, “4-Piperazinylthieno [2,3-D] Pyrimidine Compounds as Platelet Aggregation Inhibitors” (Pfizer Inc, priority 2005, published 2008).

The target of assay [1] is T1, P2Y12 receptor (Homo sapiens, UniProt Q9H244). The assay can be described thus: Human P2Y12 recombinant cell membrane binding assay with 33P 2MeS-ADP (Assay 3). Particulars: for IC50 / Ki: HEK cell membranes expressing P2Y12, multiple lines = multiple runs; for [33P]-2MeS-ADP Binding to Recombinant Human P2Y12 Membranes (Assay 3) % Inhibition / inhibition at 10 µM: highest concentration tested 10 μM; for inhibition at 10 µM: read-out: [33P]-2MeS-ADP Binding to Recombinant Human P2Y12 Membranes (Assay 3) % Inhibition. The arrangement: expressed in transfected cells; host or cells: HEK cells. The procedure:
3. Human P2Y12 Recombinant Cell Membrane Binding Assay with ^33P 2MeS-ADP.
The ability of a test compound to bind to the P2Y12 receptor was evaluated in a recombinant cell membrane binding assay. In this competitive binding assay, the test compound competed against a radiolabelled agonist for binding to the P2Y12 receptor, expressed on the cell membrane. Inhibition of binding of the labeled material was measured and correlated to the amount and potency of the test compound. Data from this assay are presented in Table F. This binding assay is a modification of the procedure in Takasaki, J. et. al, Mol. Pharmacol., 2001, Vol. 60, pg. 432.
HEK cells were transfected with the pDONR201P2Y12 vector and cultured in MEM with GlutaMAX I, Earle's salts, 25 mM HEPES (Gibco # 42360-032) containing 10% dialyzed FBS (Gibco # 26400-044), 100 μM nonessential amino acids (Gibco # 11140-050), 1 mM sodium pyruvate (Gibco # 11360-070), 0.05% geneticin (Gibco #10131-027), 3 μg/mL blasticidin (Fluka brand from Sigma # 15205), and 0.5 μg/mL puromycin (Sigma # P-8833).
Confluent cells were washed once with cold DPBS (Gibco # 14190-136). Fresh DPBS was added and the cells were scraped and centrifuged at 500×g for 5 minutes at 4° C. The cell pellets were resuspended in TEE buffer (25 mM Tris, 5 mM EDTA, 5 mM EGTA) containing 1 protease inhibitor cocktail tablet (Roche # 1 873 580) per 50 mL (called TEE+Complete) and can be flash frozen at this point.
In one embodiment, frozen cell pellets were used to prepare the membranes. In that embodiment, the frozen cell pellets were thawed on ice. In another embodiment, cell pellets may be used without flash freezing before moving on to the next step.
Cell pellets were resuspended in TEE buffer+Complete and homogenized in a glass dounce for 12 strokes. The cell suspension was centrifuged at 500×g for 5 minutes at 4° C. The supernatant was saved and centrifuged at 20,000×g for 20 minutes at 4° C. This supernatant was discarded and the cell pellet resuspended in TEE buffer+Complete and homogenized in a glass dounce for 12 strokes. This suspension was centrifuged at 20,000×g for 20 minutes at 4° C. and the supernatant discarded. The pellet was resuspended in assay buffer (50 mM Tris, 100 mM NaCl, 1 mM EDTA) containing one protease inhibitor cocktail tablet per 50 mL, and can be flash frozen as 1 mL aliquots at this point.
Dry compounds were diluted as 10 mM DMSO stocks and tested in a seven-point, three-fold dilution series run in triplicate beginning at 10 μM, final concentration. A 1 mM DMSO intermediate stock was made in a dilution plate and from this the seven dilutions were made to 5× the final concentration in assay buffer containing 0.02% BSA.
To a polypropylene assay plate (Costar # 3365) the following were added: a) 30 μL of assay buffer containing one protease inhibitor cocktail tablet per 50 mL; b) 30 μL of 1 nM ^33P 2MeS-ADP made in assay buffer containing 0.02% BSA and 12.5 mg/mL ascorbic acid; 30 μL of cold 1.5 μM 2MeS-ADP for the positive control wells, or assay buffer containing 0.02% BSA and 12.5 mg/mL ascorbic acid for the negative control wells, or 5× drug dilution; and 60 μL of 1 ug/well membranes.
The plates were incubated at room temperature for 1 hour. The reaction was stopped using a cell harvester to transfer the reaction mixture onto GF/B UniFilter plates (Perkin Elmer # 6005177), and washed three times with wash buffer (50 mM Tris), filtering between each wash. The filter plates were dried for approximately 20 minutes in an oven at 50° C. Back seals were adhered to the filter plates and 25 uL of Microscint 20 scintillation fluid (Perkin Elmer # 6013621) were added. The filter plates were sealed, shaken for 30 minutes, and counted on a Top Count. Data were analyzed using a four-parameter curve fit with a fixed minimum and maximum experimentally defined as the average positive and negative controls on each plate, and with a hill slope equal to one.

Assay [2] concerns the target T1, P2Y12 receptor. Described as above. Set-up: expressed in transfected cells; host or cells: HEK cells. Particulars: highest concentration tested 1 μM; read-out: [33P]-2MeS-ADP Binding to Recombinant Human P2Y12 Membranes (Assay 3) % Inhibition.
In assay [3] the target is T1, P2Y12 receptor. Description: Inhibition of [33P]2MeS-ADP binding to washed human platelet membranes (Assay 1). Particulars: for inhibition at 10 µM: highest concentration tested 10 μM; for IC50: washed human platelet membranes. The arrangement: the P2Y12 receptor, which is found on the surface of platelets; tissue Interstate Blood bank, Memphis, Tenn; host or cells: human platelets from platelet rich plasma. The procedure: 1. Inhibition of [^33P]2MeS-ADP Binding to Washed Human Platelet Membranes. The ability of a test compound to bind to the P2Y12 receptor was evaluated in a platelet membrane binding assay. In this competitive binding assay, the test compound competed against a radiolabelled agonist for binding to the P2Y12 receptor, which is found on the surface of platelets. Inhibition of binding of the labeled material was measured and correlated to the amount and potency of the test compound. Data from this assay are presented in Table F. Platelet rich plasma (“PRP”) was obtained from the Interstate Blood bank, Memphis, Tenn. Platelet rich plasma was prepared from blood units collected in ACD ((prepared by (1) combining: 2.5 g sodium citrate (Sigma S-4641); 1.5 g citric acid (Sigma C-0706); and, 2.0 g dextrose (Sigma G-7528); (2) bringing pH to 4.5; and (3) adding water to bring volume to 100 mL) and using the light spin protocol; this protocol involves centrifugation at room temperature for approximately 20 minutes at speeds up to 160×g. Platelet rich plasma is supplied in units of approximately 200 ml. Each unit is distributed into four 50 mL polypropylene conical tubes for centrifugation, Blood from each donor is maintained separately.
The 50 mL tubes were centrifuged for 15 minutes at 1100 rpm in Sorvall RT6000D (with H1000B rotor). Internal centrifuge temperature was maintained at approximately room temperature (22-24° C.). This spin pelleted cellular components remaining from the PRP preparation. The supernatant was decanted into fresh 50 mL tubes. To avoid carry over of cellular components following the room temperature centrifugation, approximately 5 mL of PRP was left in the tube and discarded. The tubes were capped and inverted 2-3 times and allowed to stand at room temperature for at least 15 minutes following inversion.
Optionally, a Coulter Counter may be used to count platelets from the resting samples during the resting phase. Normal human platelet counts are expected to range from 200,000 to 400,000 per μL of PRP supernatant.
The 50 mL tubes containing PRP supernatant were centrifuged for 15 minutes at 2300-2400 rpm to loosely pellet the platelets. The supernatant from this spin was decanted immediately into a clean cell culture bottle (Corning bottle) and saved in case further centrifugation was needed. The pellet of each tube was resuspended in 2-4 mL of Wash buffer (pH 6.5) (1 L prepared new daily—134 mM NaCl (Sigma S-5150); 3 mM KCl (Sigma P-9333); 1 mM CaCl2 (JT Baker 1311-01); 2 mM MgCl2 (Sigma M-2670); 5 mM glucose (EM 4074-2); 0.3 mM NaH2PO4 (Sigma S-9638)/12 mM NaHCO3 (J T Baker 3506-01); 5 mM HEPES pH 7.4 (Gibco 12379-012); 0.35% BSA (Sigma A-7906); 330 mg Heparin (bovine lung, Sigma H-4898); and 30 mL of ACD) by repeated gentle aspiration using disposable polypropylene sample pipettes.
Wash buffer (pH 6.5) was added to each tube to bring the volume to approximately 40 mL. Each tube was incubated for at least 15 minutes at 37° C.
The tubes were then centrifuged again for 15 minutes at 2300-2400 rpm to loosely pellet the platelets. The supernatant was decanted and discarded. The pellet was resuspended in 2-4 mL of Assay buffer (pH 7.4) (1 L volume—134 mM NaCl; 3 mM KCl; 1 mM CaCl2; 2 mM MgCl2; 5 mM glucose; 0.3 mM NaH2PO4/12 mM NaHCO3; 5 mM HEPES pH 7.4; and 0.35% BSA) by repeated aspiration using disposable polypropylene sample pipettes.
The pooled platelet preparation was counted using a Coulter Counter. The final concentration of platelets was brought to 1×10^6 per μL using Assay buffer pH 7.4. The platelets were rested for a minimum of 45 minutes at 37° C. before use in the assay.
In one embodiment, the compounds were tested in 96-well microtiter filterplates (Millipore Multiscreen-FB opaque plates, #MAFBNOB50). These plates were used in the assay and pre-wet with 50 μL of Assay buffer pH 7.4 then filtered through completely with a Millipore plate vacuum. […]

A word on the IC50: it is the concentration needed to halve the response being measured. As usually defined, the Ki is a dissociation constant, usually derived from enzyme kinetics or from competition with a known ligand. The term inhibition denotes the change of the read-out against control, counted positive when it falls.

Where “and” joins values, the source holds several entries; their conditions need not be identical. Identical values can stand only once. Some results are limits rather than exact numbers.

T1 sequence (Q9H244 whole entry): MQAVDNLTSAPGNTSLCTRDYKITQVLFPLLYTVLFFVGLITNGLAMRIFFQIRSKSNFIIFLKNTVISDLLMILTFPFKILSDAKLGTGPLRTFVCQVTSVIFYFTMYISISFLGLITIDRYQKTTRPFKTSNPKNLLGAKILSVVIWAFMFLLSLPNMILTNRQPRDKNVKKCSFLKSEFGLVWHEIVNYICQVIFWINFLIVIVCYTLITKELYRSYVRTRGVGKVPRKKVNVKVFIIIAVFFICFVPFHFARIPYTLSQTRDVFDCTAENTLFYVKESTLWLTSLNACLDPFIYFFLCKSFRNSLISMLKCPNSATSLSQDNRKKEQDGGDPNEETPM

Consider `CCc1cc2c(N3CCN(C(=O)Cc4ccccc4)CC3)nc(NCCO)nc2s1` [Example 11, 2-({6-Ethyl-4-[4-(phenylacetyl)piperazin-1-yl]thieno[2,3-d]pyrimidin-2-yl}amino)ethanol], for which, at P2Y12 receptor [1], the IC50 was 1.13 µM and 1.19 µM and 0.905 µM; the Ki is 0.65 µM and 0.687 µM and 0.905 µM; the “[33P]-2MeS-ADP Binding to Recombinant Human P2Y12 Membranes (Assay 3) % Inhibition” value (shortened to “[33P]-2MeS-ADP Binding … (Assay 3) % Inhibition”) was 82.93%; the inhibition at 10 µM came out at 76.7%. Besides, the inhibition at 1 µM at P2Y12 receptor [2] turned out to be 51%.
Regarding `CCc1cc2c(N3CCN(C(=O)Cc4ccccc4)CC3)nc(NCc3ccc(F)cc3)nc2s1` [Example 13, 6-Ethyl-N-(4-fluorobenzyl)-4-[4-(phenylacetyl)piperazin-1-yl]thieno[2,3-d]pyrimidin-2-amine], on P2Y12 receptor [3], the inhibition at 10 µM was found to be 45.6% and the IC50 is over 10 µM.
`CCc1cc2c(N3CCN(C(=O)Cc4ccccc4)CC3)nc(NCc3cccc(F)c3)nc2s1` [Example 14, 6-Ethyl-N-(3-fluorobenzyl)-4-[4-(phenylacetyl)piperazin-1-yl]thieno[2,3-d]pyrimidin-2-amine]: on P2Y12 receptor [3], the inhibition at 10 µM came to 39.9% and the IC50 is over 10 µM.
On P2Y12 receptor [3], `CCc1cc2c(N3CCN(C(=O)Cc4ccccc4)CC3)nc(NCc3ccccc3)nc2s1` [Example 15, N-benzyl-6-ethyl-4-[4-(phenylacetyl)piperazin-1-yl]thieno[2,3-d]pyrimidin-2-amine] registered an inhibition at 10 µM of 44% and an IC50 of over 10 µM.
Regarding `CCc1cc2c(N3CCN(C(=O)c4ccc(-c5ccccc5)cc4)CC3)nc(NC[C@H](O)CO)nc2s1` [Example 26, (2S)-3-({4-[4-(1,1′-biphenyl-4-ylcarbonyl)piperazin-1-yl]-6-ethylthieno[2,3-]pyrimidin-2-yl}amino)propane-1,2-diol], at P2Y12 receptor [1], the IC50 was 0.02 µM and 0.061 µM and 0.047 µM; the Ki was 0.01 µM and 0.035 µM and 0.027 µM; the “[33P]-2MeS-ADP Binding … (Assay 3) % Inhibition” value is reported as 94.85%; the inhibition at 10 µM was found to be 98.6%. Further, the inhibition at 1 µM at P2Y12 receptor [2] worked out at 90%.
As for `CCc1cc2c(N3CCN(C(=O)c4ccc(-c5ccccc5)cc4)CC3)nc(NC[C@@H](O)CO)nc2s1` [Example 27, (2R)-3-({4-[4-(1,1′-biphenyl-4-ylcarbonyl)piperazin-1-yl]-6-ethylthieno[2,3-d]pyrimidin-2-yl}amino)propane-1,2-diol], on P2Y12 receptor [1], the IC50 was 0.01 µM and 0.048 µM and 0.043 µM; the Ki was 0.01 µM and 0.028 µM and 0.025 µM; the “[33P]-2MeS-ADP Binding … (Assay 3) % Inhibition” value stood at 93.86%; the inhibition at 10 µM worked out at 100%. Further, the inhibition at 1 µM on P2Y12 receptor [2] amounted to 92%.
For the compound `CCc1cc2c(N3CCN(C(=O)c4cccc(-c5ccccc5)c4)CC3)nc(NC[C@H](O)CO)nc2s1` [Example 29, (2S)-3-({4-[4-(1,1′-biphenyl-3-ylcarbonyl)piperazin-1-yl]-6-ethylthieno[2,3-d]pyrimidin-2-yl}amino)propane-1,2-diol], at P2Y12 receptor [1], the IC50 was 0.068 µM and 0.05 µM and 0.132 µM; the Ki was 0.036 µM and 0.03 µM and 0.076 µM; the “[33P]-2MeS-ADP Binding … (Assay 3) % Inhibition” value amounted to 93.19%; the inhibition at 10 µM amounted to 97.3%. Also, the inhibition at 1 µM on P2Y12 receptor [2] worked out at 89%.
With `CCc1cc2c(N3CCN(C(=O)c4cccc(-c5ccccc5)c4)CC3)nc(NC[C@@H](O)CO)nc2s1` [Example 30, (2R)-3-({4-[4-(1,1′-biphenyl-3-ylcarbonyl)piperazin-1-yl]-6-ethylthieno[2,3-d]pyrimidin-2-yl}amino)propane-1,2-diol], at P2Y12 receptor [1], the IC50 was 0.063 µM and 0.08 µM and 0.105 µM; the Ki was 0.033 µM and 0.05 µM and 0.061 µM; the “[33P]-2MeS-ADP Binding … (Assay 3) % Inhibition” value is reported as 96.44%; the inhibition at 10 µM came out at 97.7%. Further, the inhibition at 1 µM at P2Y12 receptor [2] was 88%.
As for `CCc1cc2c(N3CCN(C(=O)c4ccc(-c5ccccc5)cc4)CC3)nc(NC(CO)CO)nc2s1` [Example 31, 2-({4-[4-(1,1′-biphenyl-4-ylcarbonyl)piperazin-1-yl]-6-ethylthieno[2,3-d]pyrimidin-2-yl}amino)propane-1,3-diol], on P2Y12 receptor [1], the IC50 was 0.021 µM and the Ki was determined as 0.012 µM. At P2Y12 receptor [2], the inhibition at 1 µM worked out at 93%.
